Experimental data published in the NIST ThermoML archive (doi:10.1016/j.jct.2015.08.014).

Assay: xn = mol fraction of the nth substance listed
Conditions: 100 kPa, Liquid; for electrical conductivity: Alternating current cell with electrodes; for mass density: Vibrating tube method; for viscosity: Capillary tube (Ostwald / Ubbelohde) method

CCCC[N+]1(C)CCCC1.N#CN=C=[N-] [1-butyl-1-methylpyrrolidinium dicyanamide] + O=C1CCCO1
electrical conductivity [S/m]
Conditions	Frequency=0.0005 MHz	Frequency=0.001 MHz	Frequency=0.0015 MHz	Frequency=0.002 MHz	Frequency=0.0025 MHz	Frequency=0.003 MHz	Frequency=0.00347222 MHz	Frequency=0.01 MHz
298.15 K, x1 = 0.1449	–	–	–	–	–	–	–	2.51
298.15 K, x1 = 0.1859	–	–	–	–	–	–	–	2.68
298.15 K, x1 = 0.2493	–	–	–	–	–	–	–	2.614
298.15 K, x1 = 0.3029	–	–	–	–	–	–	–	2.54
298.15 K, x1 = 0.3845	–	–	–	–	–	–	–	2.36
298.15 K, x1 = 0.4985	–	–	–	–	–	–	–	2.08
298.15 K, x1 = 0.6954	–	–	–	–	–	–	–	1.68
298.15 K, x1 = 0.9013	–	–	–	–	–	–	–	1.39
298.15 K, x1 = 1	–	–	–	–	–	–	–	1.318
303.15 K, x1 = 0.0463	1.56	1.57	1.57	1.57	1.57	1.58	1.58	–
303.15 K, x1 = 0.0987	2.36	2.37	2.37	2.38	2.38	2.38	2.38	–
303.15 K, x1 = 0.1449	2.71	2.71	2.71	2.71	2.71	2.71	2.71	–
303.15 K, x1 = 0.1859	2.87	2.88	2.89	2.89	2.89	2.89	2.9	–
303.15 K, x1 = 0.2493	2.85	2.85	2.85	2.85	2.85	2.85	2.85	–
303.15 K, x1 = 0.3029	2.78	2.78	2.78	2.79	2.79	2.79	2.79	–
303.15 K, x1 = 0.3845	2.608	2.612	2.614	2.616	2.616	2.617	2.617	–
303.15 K, x1 = 0.4985	2.33	2.33	2.33	2.33	2.33	2.33	–	–
303.15 K, x1 = 0.6954	1.908	1.909	1.91	1.911	1.911	1.911	–	–
303.15 K, x1 = 0.9013	1.602	1.604	1.605	1.606	1.606	1.607	–	–
303.15 K, x1 = 1	1.525	1.526	1.526	1.527	1.527	1.527	–	–

Conditions	electrical conductivity, 303.15 K [S/m]	mass density, 298.15 K [kg/m3]	viscosity, 303.15 K [mPa·s]
x1 = 0.0463	1.58	–	–
x1 = 0.0987	2.38	1103.29	2.56
x1 = 0.1449	2.71	–	–
x1 = 0.1859	2.9	1087.38	3.64
x1 = 0.2493	2.86	–	–
x1 = 0.3029	2.79	1069.77	5.53
x1 = 0.3845	2.619	–	–
x1 = 0.4985	2.33	1047.53	9.91
x1 = 0.6954	1.912	1031.19	16.03
x1 = 0.9013	1.608	1018.43	23.88
x1 = 1	1.527	1013.45	28.53
